Results from patent US20020025983A1, “Vitamin K and essential fatty acids” (priority 2000, published 2002).

Tests used:
[1] = tested on: person with atopic dermatitis and with mild premenstrual syndrome; experiment: Case report: person with atopic dermatitis and mild premenstrual syndrome given EPO, vitamin K1, then EPO again; assay type: in vivo, human; settings: vitamin K1 supplements alone
Excerpt: A person with atopic dermatitis and with mild premenstrual syndrome was recommended to take 3 g/day of evening primrose oil (EPO). EPO is a widely used nutritional supplement for these problems. It contains about 70% of linoleic acid, but more importantly contains 8-12% of GLA which can by-pass a block in the conversion of linoleic acid to GLA which can occur in many situations, including atopic dermatitis, stress and menstrual disorders. […] As an experiment they were then cautiously given EPO again.

[2] = tested on: person with severe menstrual cramps and mild premenstrual syndrome; experiment: Case report: person with severe menstrual cramps and mild premenstrual syndrome given EPO and fish oil, vitamin K1, then EPO and fish oil again; assay type: in vivo, human; settings: vitamin K1 supplement 2 mg (2000 μg) per day for a month, alone
Description: A second person presented with severe menstrual cramps and mild premenstrual syndrome. […] They therefore took 2 mg (2000 μg) per day of a vitamin K1 supplement for a month which also had no effect on their menstrual problems.

women with osteoporosis = settings: 45 mg/day; cited from earlier work

Row | Compound | improvement of skin or premenstrual syndrome [1] | vitamin K deficiency [1] | effect on menstrual problems [2] | progressive loss of bone mineral density (women with osteoporosis) | risk of bone fractures (women with osteoporosis)
1 | CC1=C(C/C=C(\C)CCC[C@H](C)CCC[C@H](C)CCCC(C)C)C(=O)c2ccccc2C1=O [vitamin K1, phylloquinone] | did not improve | corrected | no effect |  | 
2 | menaquinones [vitamin K2] |  |  |  | slow down but not prevent | could reduce the risk of bone fractures
